Among the test systems are TK-10; SNB-19; LXFL 529; SF-539; OVCAR-3; 786-0; HCT-15; SF-295; SN12C; LOX IMVI; CCRF-CEM; HT-29; UACC-62; NCI-H460; SK-MEL-5; KM12; NCI-H226; SR; PC-3; BT-549.
What all share (assay): DTP human tumour cell line panel, 48 h

Molecules are shown by their SMILES.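 Growth conditions: 96-well plates. Treatment: test compound, 48 hours, 5 concentrations. Analysis: linear interpolation between bracketing concentrations; unreached endpoints set to highest concentration. GI50 is the concentration that inhibits growth by half.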 The source made the active and inactive calls. Cut-off read from the data, not from the text of the source: active = GI50 up to about 1.1 µM and inactive = higher.

With `COc1ccc2nc(NC(=O)C(=O)C(C#N)c3ccc(Cl)c(Cl)c3)sc2c1` (centres undefined), the GI50 – broadly, the concentration at which growth is held to half of that of the control – in the test with TK-10 is > 100 µM (inactive); in the test on SNB-19, > 100 µM (inactive); in the test on LXFL 529, > 100 µM (inactive); in the test with SF-539, 63.4 µM (inactive); with OVCAR-3, > 100 µM (inactive); in the test with 786-0 it was > 100 µM (inactive). Also, the GI50 with HCT-15 was over 100 µM; in the test with SF-295, > 100 µM (inactive); in the test with SN12C it was > 100 µM (inactive); in the test on LOX IMVI it was > 100 µM (inactive); in the test with CCRF-CEM, > 100 µM (inactive); in the test on HT-29, > 100 µM (inactive). Further, the GI50 in the test with UACC-62 is > 100 µM (inactive); in the test on NCI-H460, 84.7 µM (inactive); in the test with SK-MEL-5 it was > 100 µM (inactive); in the test with KM12, > 100 µM (inactive); in the test on NCI-H226 it was > 100 µM (inactive).
Consider `O=C(c1ccc(O)cc1)C1c2c3c(cc(O)c2C(c2ccc(O)cc2)C1c1cc(O)cc(O)c1)OC(c1ccc(O)cc1)C3c1cc2c(cc1O)OC(c1ccc(O)cc1)C2c1cc(O)cc(O)c1` (centres undefined), for which the GI50 in the test on TK-10, with SNB-19, with LXFL 529, with SF-539, with OVCAR-3 and with 786-0 was > 12.5 µM (inactive) in each case. Also, the GI50 with HCT-15 is over 12.5 µM; in the test on SN12C, > 12.5 µM (inactive); with LOX IMVI, > 12.5 µM (inactive); with SR, > 12.5 µM (inactive); with CCRF-CEM, > 12.5 µM (inactive); in the test on UACC-62, 0.065 µM (active). In addition, the GI50 in the test with NCI-H460, with SK-MEL-5, in the test with KM12 and in the test with NCI-H226 was > 12.5 µM (inactive) throughout.
As for `N#C/C(=C\c1ccc(O)cc1O)C(N)=O`, the GI50 is > 100 µM (inactive) in the test with TK-10; 87.9 µM (inactive) in the test on SNB-19; > 100 µM (inactive) in the test with LXFL 529; > 100 µM (inactive) in the test on SF-539; > 100 µM (inactive) in the test on OVCAR-3; > 100 µM (inactive) in the test on 786-0. The GI50 was over 100 µM in the test with HCT-15; > 100 µM (inactive) with SF-295; > 100 µM (inactive) in the test with SN12C; > 100 µM (inactive) with LOX IMVI; > 100 µM (inactive) in the test on CCRF-CEM; 29.8 µM (inactive) with HT-29. Further, the GI50 was 58.6 µM (inactive) in the test with UACC-62, > 100 µM (inactive) in the test with NCI-H460, > 100 µM (inactive) in the test on KM12 and 41.6 µM (inactive) in the test on NCI-H226.
On to `CSc1nnc(CCC(=O)Nc2c(C)cccc2C)o1`, for which the GI50 in the test with TK-10, in the test with SNB-19, in the test with LXFL 529, with SF-539, in the test on OVCAR-3 and in the test with 786-0 was > 100 µM (inactive) throughout. The GI50 with HCT-15 was 50.8 µM; in the test with SF-295, > 100 µM (inactive); in the test with SN12C, > 100 µM (inactive); in the test on LOX IMVI it was > 100 µM (inactive); in the test with CCRF-CEM, > 100 µM (inactive); with HT-29 it was > 100 µM (inactive). Moreover, the GI50 in the test on UACC-62, in the test on NCI-H460, in the test on SK-MEL-5, with KM12 and in the test on NCI-H226 was > 100 µM (inactive) throughout.
For the molecule `CC(c1cccc2ccccc12)/[N+]([O-])=C/c1ccccc1` (centres undefined), the GI50 with TK-10, in the test with SNB-19, in the test on LXFL 529, in the test with SF-539, in the test on OVCAR-3 and with 786-0 was > 100 µM (inactive) each time. The GI50 in the test with SF-295, in the test with LOX IMVI, in the test on CCRF-CEM, in the test on HT-29, with NCI-H460 and with SK-MEL-5 was > 100 µM (inactive) in each case. Moreover, the GI50 in the test on KM12 was > 100 µM (inactive).
On to `CCCCCCCCNC(=O)SCCCC`, for which the GI50 in the test on TK-10 was 29 µM (inactive); in the test on SNB-19, 27.5 µM (inactive); in the test on LXFL 529, 38.5 µM (inactive); with SF-539, 38.6 µM (inactive); in the test with OVCAR-3, 49.5 µM (inactive); with 786-0, 30.6 µM (inactive). Besides, the GI50 in the test with HCT-15 is 27.9 µM; with SF-295, 38 µM (inactive); with SN12C, 37.8 µM (inactive); with LOX IMVI it was 19.9 µM (inactive); with CCRF-CEM it was 23.4 µM (inactive); in the test on HT-29 it was 20.8 µM (inactive). Moreover, the GI50 was 43.2 µM (inactive) in the test on UACC-62, 28.4 µM (inactive) with NCI-H460, 21.3 µM (inactive) in the test on SK-MEL-5 and 55 µM (inactive) in the test on KM12.
For `CC(C)C(=O)/C=C/c1ccccc1`, the GI50 in the test with SNB-19 was > 100 µM (inactive); with LXFL 529 it was > 100 µM (inactive); in the test with SF-539, > 100 µM (inactive); in the test with OVCAR-3 it was 31 µM (inactive); with 786-0, 46.5 µM (inactive); in the test on SF-295, 91.2 µM (inactive). Moreover, the GI50 in the test on SN12C is 79.3 µM (inactive); in the test with LOX IMVI, 83.6 µM (inactive); with SR, 31.2 µM (inactive); in the test on CCRF-CEM it was 23.9 µM (inactive); in the test on HT-29, 53.5 µM (inactive); in the test on UACC-62 it was 87.3 µM (inactive). Further, the values for the GI50 with NCI-H460, with SK-MEL-5 and in the test with KM12 were 50.6 µM (inactive), 67.3 µM (inactive) and 69.7 µM (inactive), respectively.
`CN1COc2c(n(C)c(=O)[nH]c2=O)C1`: the GI50 in the test with TK-10, in the test with SNB-19, in the test on LXFL 529, with SF-539, in the test on OVCAR-3 and with 786-0 was > 100 µM (inactive) throughout. Further, the GI50 was 98.2 µM in the test on HCT-15; > 100 µM (inactive) in the test with SF-295; > 100 µM (inactive) in the test on SN12C; 27.2 µM (inactive) with SR; > 61.7 µM (inactive) in the test with CCRF-CEM; > 100 µM (inactive) with HT-29. The GI50 was > 80 µM (inactive) in the test on UACC-62; > 100 µM (inactive) in the test on NCI-H460; > 100 µM (inactive) in the test with SK-MEL-5; > 100 µM (inactive) in the test on KM12; > 100 µM (inactive) in the test on NCI-H226.
With `C=C1C(=O)OC2C1C(OC(=O)/C(C)=C\C)CC1(CO1)C1C(O)C=C(C)C21O` (centres undefined), the GI50 was 3.44 µM (inactive) in the test with TK-10; 20.7 µM (inactive) in the test with SNB-19; 1.59 µM (inactive) in the test with LXFL 529; 2.61 µM (inactive) in the test on SF-539; 3.77 µM (inactive) in the test on OVCAR-3; 2.96 µM (inactive) with 786-0. For the same molecule, the GI50 was 2.81 µM with HCT-15; 20.8 µM (inactive) with SF-295; 3.27 µM (inactive) in the test with SN12C; 14.4 µM (inactive) with LOX IMVI; 4.83 µM (inactive) in the test on SR; 2.65 µM (inactive) with CCRF-CEM. Also, the GI50 was 13 µM (inactive) with HT-29; 1.74 µM (inactive) with UACC-62; 14.3 µM (inactive) in the test on NCI-H460; 4.28 µM (inactive) in the test with SK-MEL-5; 11.5 µM (inactive) in the test with KM12.
For `O=c1[nH]c2c3ccccc3ccc2c2cc3c(cc12)OCO3`, the GI50 in the test with TK-10 was > 100 µM (inactive); with SNB-19 it was > 100 µM (inactive); with LXFL 529, 79.4 µM (inactive); in the test on SF-539 it was > 100 µM (inactive); with OVCAR-3, > 100 µM (inactive); with 786-0, > 100 µM (inactive). The GI50 is 71.6 µM in the test on HCT-15; > 100 µM (inactive) in the test with SF-295; > 100 µM (inactive) in the test with SN12C; > 100 µM (inactive) in the test with LOX IMVI; 69.8 µM (inactive) in the test with CCRF-CEM; > 100 µM (inactive) in the test with HT-29. Besides, the GI50 in the test with UACC-62 was > 100 µM (inactive); with NCI-H460, > 100 µM (inactive); in the test with SK-MEL-5, 43.5 µM (inactive); in the test with KM12, 75.5 µM (inactive); in the test with NCI-H226 it was > 100 µM (inactive).
In the case of `Cn1c2ccccc2c2c(-c3ccccc3)cc3c(c21)C(=O)C=CC3=O`, the GI50 in the test on TK-10 was 1.92 µM (inactive); with SNB-19, 4.05 µM (inactive); with SF-539, 1.92 µM (inactive); with PC-3, 3.02 µM (inactive); in the test on OVCAR-3, 2.05 µM (inactive); in the test with 786-0, 1.57 µM (inactive). Further, the GI50 in the test with HCT-15 was 1.85 µM; with SF-295, > 10 µM (inactive); in the test on SN12C, 2.39 µM (inactive); in the test with LOX IMVI, 3.26 µM (inactive); with SR, 0.195 µM (active); in the test with BT-549 it was 1.6 µM (inactive). Besides, the GI50 in the test with CCRF-CEM was 0.228 µM (active); in the test on HT-29, 3.83 µM (inactive); in the test on UACC-62, 1.73 µM (inactive); with NCI-H460 it was 6.07 µM (inactive); in the test with SK-MEL-5 it was 2.96 µM (inactive); in the test with KM12, 4.43 µM (inactive). The GI50 with NCI-H226 was 2.18 µM (inactive).
As for `OCc1ccc2c(c1)CC1(C2)Cc2cc3c(cc2C1O)CCC3` (centres undefined), the GI50 with TK-10 is 21.9 µM (inactive); in the test with SNB-19, 4.97 µM (inactive); with SF-539 it was 3.5 µM (inactive); in the test with PC-3 it was 2.34 µM (inactive); in the test with OVCAR-3 it was 4.78 µM (inactive); in the test with 786-0, 5.64 µM (inactive). For the same molecule, the GI50 with HCT-15 is 3.36 µM; in the test with SF-295 it was 2.2 µM (inactive); in the test with SN12C, 3.22 µM (inactive); in the test on LOX IMVI it was 5.18 µM (inactive); in the test on SR it was 2.33 µM (inactive); with BT-549, 2.86 µM (inactive). For the same molecule, the GI50 with CCRF-CEM is 4.01 µM (inactive); in the test on HT-29, 3.27 µM (inactive); in the test on UACC-62 it was 3.72 µM (inactive); with NCI-H460, 3.28 µM (inactive); in the test with SK-MEL-5 it was 3.04 µM (inactive); with KM12 it was 2.87 µM (inactive). In addition, the GI50 in the test with NCI-H226 is 7.31 µM (inactive).

The record behind these values is ChEMBL document CHEMBL1201862, “PubChem BioAssay data set” (2004).
